Data on 18 compounds can be found in patent US9751861B2, “N1-(3,3,3-trifluoro-2-hydroxo-2-methylpropionyl)-piperidine derivatives as inhibitors of pyruvate dehydrogenase kinase” (MERCK PATENT GMBH, priority 2013, dated 2017).

Molecules are shown by their SMILES.

Broadly, the IC50 is the concentration needed to halve the response being measured. Broadly, the Kd is the free concentration of one partner at which half of the binding sites on the other are occupied at equilibrium, for simple one-to-one binding. Read a high Kd as a looser complex.

One assay concerns PDH-Elalpha (pSer300). Kind of assay: Cellular immunofluorescence assay in HEK293T cells. Particulars: Homo sapiens, HEK-293T, 5 hours incubation, anti-PDH-E1alpha pSer300 immunofluorescence, read-out: IC50 (cell data). In kind it is cell-based. The method, then: Cellular Assay for Determination of Compound Activities
Compound activities were determined in a cellular immunofluorescence assay. Human HEK293T cells were seeded into black 384-well plates with clear bottom and grown overnight.
Next day, test compounds were added to the wells and the plates incubated for 5 hours. Following this, cells were fixed with formaldehyde, permeabilised and blocked. The primary antibody, Anti-PDH-Elalpha (pSer300), AP1064 (Merck Millipore) was added and incubated overnight in the plate wells. Next, cells were washed and the seconday antibody, Alexa Fluor 488, goat anti-rabbit ab (A-11008, Invitrogen) was added together with Hoechst 33258 (H3569, Invitrogen) and incubated for 1 hour in the plate wells. Finally, cells were washed and the plates were measured on the laser scanning cytometer acumen hci (TTpLabtech).
The raw data were normalized against a pharmacological inhibitor control and dose response curves were generated by plotting the percent effect values using the software package Genedata screener (Genedata).

The next assay has as its target T1, human PDHK2 (12-407) (Homo sapiens, UniProt Q15119).
T1 construct: The human PDHK2 (12-407) was produced in E. coli; His-tag (cleaved yes); made in house; host or cells: E. coli
Kind of assay: Isothermal titration calorimetry (ITC) binding. Particulars: 30° C., pH 7.5. The method, then: Isothermal Titration Calorimetry
ITC measurements were performed with a VP-ITC micro calorimeter (Microcal, LLC/GE Healthcare Bio-Sciences AB, Uppsala, Sweden). In general titrations were performed by titrating the protein (50 μM) to the test compound (5 μM) in 12 μl injections. All binding experiments were carried out at 30° C. In general the test compounds were diluted form DMSO stock solutions into the measurement buffer with a maximum final concentration of 1% DMSO. The measurement buffer was 20 mM HEPES, 135 mM KCl, 1 mM TCEP, 2 mM MgCl2, 15 mM NaH2PO4, pH 7.5. The human PDHK2 (12-407) was produced in E. coli as his-tagged protein and purified by affinity chromatography. The tag was removed by side specific proteolysis. Before titration the protein buffer was changed to the measurement buffer containing the same DMSO concentration as the test compound dilution. ITC data analysis was performed using Origin 7 calorimetry software from the same supplier. For most measurements a binding model of one binding site was assumed. According to the applied mathematical model it is possible to calculate the binding constant (KA), the observed binding enthalpy (ΔH^obs) as well as the stoichiometry (N) of the formed complex. Preceding analysis the raw data was corrected for the heats of dilution by extrapolating from the saturation value from the end of titration. In order to allow for direct comparison between the respective experimental series and protein preparations the protein concentration was corrected by referencing titrations to a well behaved standard inhibitor. The apparent stoichiometry values defined the fraction of binding competent protein and compensated for relative errors in protein concentration measurements. This corrected protein concentration was used to set up ITC experiment series with test compounds. Any deviations from ideal 1:1 stoichiometry observed here were attributed to errors in compound concentration. This nominal compound concentration was corrected as well to achieve 1:1 stoichiometry in the fit.
A general note: Isothermal titration calorimetry measures the heat released or taken up as one component is titrated into another.

The next assay concerns the target T2, PDHK2 (Homo sapiens, UniProt Q15119).
T2 construct: purchased Carna Bioscience
Kind of assay: Biochemical activity testing of PDHK2: PDC inactivation assay. As to conditions: human rec PDHK2, PDC from porcine heart, ATP 5 μM; read-out: IC50 PDHK2 (enzyme assay). From the text: Biochemical Activity Testing of PDHK2: PDC Inactivation Assay
The biochemical activity assay for PDHK2 is based on the inactivation of PDC through phosphorylation by PDHK2. The assay is run in two steps: the enzymatic PDHK2 reaction in which isolated PDC is phosphorylated by PDHK2 with ATP as co-substrate and the PDC activity assay in which pyruvate and NAD are converted to acetyl-CoA and NADH. The PDC activity correlates to the increase in NADH and thereby is detectable directly via the increasing fluorescence signal (Exc 340 nm, Em 450 nm). Inhibition of PDHK2 results in a lower phosphorylation status and thereby a less decrease in activity of PDC and a stronger increase in NADH fluorescence signal.
The PDC inactivation assay is performed in Greiner 384-well microtiter plates and is used for high throughput screen. 4 μl of PDHK2 (human, rec, Carna Bioscience, 10 ng/μl-137 nM final concentration) and PDC (isolated from porcine heart, Sigma-Aldrich, 20 mU/ml final concentration) are incubated in the absence or presence of the test compound (10 dilution concentrations) for 30 min at room temperature in kinase buffer (15 mM potassium phosphate buffer, pH 7.0, 60 mM KCl, 1.5 mM DTT, 2.5 mM MgCl2, 0.0125% (w/v) BSA, 0.125% Pluronic F-68). The kinase reaction is started by the addition of 4 μl ATP substrate solution (fc 5 μM in kinase buffer). After 30 min incubation at 37° C. 40 μl of PDC reaction solution (100 mM Tris/HCl, pH 7.8, 0.5 mM EDTA, 1 mM MgCl2, 50 mM NaF, 0.25 mM Coenzyme A, 5 mM pyruvate, 1 mM NAD, 5 mM DTT, […] thiamine pyrophosphate) is added. The first fluorescence measurement is performed on a Perkin Elmer Envision (Exc 340 nm, Em 450 nm). The reaction is incubated for 45 min at room temperature. Afterwards a second fluorescence measurement is performed and the PDC activity is calculated by the difference between both measurements. As full value for the PDHK2 assay the inhibitor-free PDHK2 reaction is used. The pharmacological zero value used is DCA (Sigma-Aldrich) in a final concentration of 3 mM. The inhibitory values (IC50) were determined using either the program Symyx Assay Explorer® or Condosseo® from GeneData.

`C[C@@](O)(C(=O)N1CCC(c2ccnn2-c2ccc(Cl)cc2F)CC1)C(F)(F)F` [Compound A23, (R)-1-{4-[2-(4-Chloro-2-fluoro-phenyl)-2H-pyrazol-3-yl]-piperidin-1-yl}-3,3,3-trifluoro-2-hydroxy-2-methyl-propan-1-one]: the IC50 in the assay with PDH-Elalpha (pSer300) was 300 to 3000 nM; at PDHK2 it was less than 300 nM. The compound also had a Kd on human PDHK2 (12-407) of less than 300 nM.
`C[C@@](O)(C(=O)N1CCC(c2nccn2-c2ccc(F)cc2)CC1)C(F)(F)F` [Compound A67, (R)-3,3,3-Trifluoro-1-{4-[1-(4-fluoro-phenyl)-1H-imidazol-2-yl]-piperidin-1-yl}-2-hydroxy-2-methyl-propan-1-one]: the Kd on human PDHK2 (12-407) is 300 to 3000 nM. Also, on PDHK2, the IC50 was 300 to 3000 nM.
Regarding `C[C@@](O)(C(=O)N1CCC(c2nncn2-c2ccccc2)CC1)C(F)(F)F` [Compound A72, (R)-3,3,3-Trifluoro-2-hydroxy-2-methyl-1-[4-(4-phenyl-4H-[1,2,4]triazol-3-yl)piperidin-1-yl]-propan-1-one], the Kd at human PDHK2 (12-407) lay within 300 to 3000 nM. Also, the IC50 on PDHK2 is 300 to 3000 nM.
In turn, `C[C@@](O)(C(=O)N1CCC(c2ccn(-c3ccc(Cl)cn3)n2)CC1)C(F)(F)F` [Compound A29, (R)-1-{4-[1-(5-Chloro-pyridin-2-yl)-1H-pyrazol-3-yl]-piperidin-1-yl}-3,3,3-trifluoro-2-hydroxy-2-methyl-propan-1-one] gave a Kd at human PDHK2 (12-407) of 300 to 3000 nM. Moreover, the IC50 on PDHK2 was 300 to 3000 nM.
As for `Cc1cc(C2CCN(C(=O)[C@@](C)(O)C(F)(F)F)CC2)n(-c2ccc(Cl)cc2)n1` [Compound A50, (R)-1-{4-[2-(4-Chloro-phenyl)-5-methyl-2H-pyrazol-3-yl]-piperidin-1-yl}-3,3,3-trifluoro-2-hydroxy-2-methyl-propan-1-one], the Kd on human PDHK2 (12-407) is less than 300 nM. Also, the IC50 on PDHK2 was less than 300 nM.
On to `C[C@@](O)(C(=O)N1CCC(c2ccnn2-c2ccccc2C#N)CC1)C(F)(F)F` [Compound A3, 2-{5-[1-((R)-3,3,3-Trifluoro-2-hydroxy-2-methyl-propionyl)-piperidin-4-yl]-pyrazol-1-yl}-benzonitrile], for which the IC50 in the assay with PDH-Elalpha (pSer300) is 300 to 3000 nM. Also, at human PDHK2 (12-407), the Kd is 300 to 3000 nM.
`Cc1ccc(-n2nncc2C2CCN(C(=O)[C@@](C)(O)C(F)(F)F)CC2)c(F)c1` [Compound A60]: the Kd on human PDHK2 (12-407) is 300 to 3000 nM. Also, the IC50 at PDHK2 lay within 300 to 3000 nM.
`Cc1ccc(-n2ccnc2C2CCN(C(=O)[C@@](C)(O)C(F)(F)F)CC2)cc1` [Compound A68, (R)-3,3,3-Trifluoro-2-hydroxy-2-methyl-1-[4-(1-p-tolyl-1H-imidazol-2-yl)piperidin-1-yl]-propan-1-one]: the Kd on human PDHK2 (12-407) fell in the range of 300 to 3000 nM. Further, on PDHK2, the IC50 was 300 to 3000 nM.
For `COc1ccc(-n2ccnc2C2CCN(C(=O)[C@@](C)(O)C(F)(F)F)CC2)cc1` [Compound A70, (R)-3,3,3-Trifluoro-2-hydroxy-1-{4-[1-(4-methoxy-phenyl)-1H-imidazol-2-yl]-piperidin-1-yl}-2-methyl-propan-1-one], the Kd on human PDHK2 (12-407) was in the range of 300 to 3000 nM. Moreover, the IC50 at PDHK2 fell in the range of 300 to 3000 nM.
On to `C[C@H]1CN(C(=O)[C@@](C)(O)C(F)(F)F)CC[C@H]1c1ccnn1-c1ccc(F)cc1F` [Compound A32, (R)-1-{(3R,4R)-4-[2-(2,4-difluoro-phenyl)-2H-pyrazol-3-yl]-3-methyl-piperidin-1-yl}-3,3,3-trifluoro-2-hydroxy-2-methyl-propan-1-one], for which the IC50 is 300 to 3000 nM in the assay with PDH-Elalpha (pSer300) and less than 300 nM on PDHK2.
For `Cc1cc(C2CCN(C(=O)[C@@](C)(O)C(F)(F)F)CC2)nn1-c1ccc(Cl)cc1` [Compound A34, (R)-1-{4-[1-(4-Chloro-phenyl)-5-methyl-1H-pyrazol-3-yl]-piperidin-1-yl}-3,3,3-trifluoro-2-hydroxy-2-methyl-propan-1-one], the Kd on human PDHK2 (12-407) lay in the range of 300 to 3000 nM. Besides, the IC50 at PDHK2 was 300 to 3000 nM.
In the case of `C[C@@](O)(C(=O)N1CCC(c2cnnn2-c2ccc(Cl)cc2)CC1)C(F)(F)F` [Compound A58, (R)-1-{4-[3-(4-Chloro-phenyl)-3H-[1,2,3]triazol-4-yl]-piperidin-1-yl}-3,3,3-trifluoro-2-hydroxy-2-methyl-propan-1-one], the Kd on human PDHK2 (12-407) is 300 to 3000 nM. For the same compound, the IC50 at PDHK2 was 300 to 3000 nM.
For the compound `C[C@@](O)(C(=O)N1CCC(c2ccnn2C2CC2)CC1)C(F)(F)F` [Compound A74, (R)-1-[4-(2-Cyclopropyl-2H-pyrazol-3-yl)-1-piperidyl]-3,3,3-trifluoro-2-hydroxy-2-methyl-propan-1-one], the Kd on human PDHK2 (12-407) is less than 300 nM. The IC50 at PDHK2 is 300 to 3000 nM.
`COc1ccccc1-n1nccc1C1CCN(C(=O)[C@@](C)(O)C(F)(F)F)CC1` [Compound A7, (R)-3,3,3-Trifluoro-2-hydroxy-1-{4-[2-(2-methoxy-phenyl)-2H-pyrazol-3-yl]-piperidin-1-yl}-2-methyl-propan-1-one]: in the assay with PDH-Elalpha (pSer300), the IC50 is less than 300 nM. This compound came in with a Kd on human PDHK2 (12-407) of 300 to 3000 nM.
For the compound `C[C@@H]1CN(C(=O)[C@@](C)(O)C(F)(F)F)CC[C@@H]1c1ccnn1-c1ccc(F)cc1F` [Compound A33, (R)-1-{(3S,4S)-4-[2-(2,4-difluoro-phenyl)-2H-pyrazol-3-yl]-3-methyl-piperidin-1-yl}-3,3,3-trifluoro-2-hydroxy-2-methyl-propan-1-one], the IC50 in the assay on PDH-Elalpha (pSer300) and at PDHK2 was less than 300 nM in each case.
On to `C[C@H]1CN(C(=O)[C@@](C)(O)C(F)(F)F)CC[C@H]1c1ccnn1-c1ccc(F)cc1` [Compound A108, (R)-3,3,3-Trifluoro-1-{(3R,4R)-4-[2-(4-fluoro-phenyl)-2H-pyrazol-3-yl]-3-methyl-piperidin-1-yl}-2-hydroxy-2-methyl-propan-1-one], for which the Kd on human PDHK2 (12-407) was 300 to 3000 nM. The IC50 at PDHK2 lay within 300 to 3000 nM.
As to `C[C@@](O)(C(=O)N1CCC(n2cnnc2-c2ccc(Cl)cc2)CC1)C(F)(F)F` [Compound A56, (R)-1-{4-[3-(4-Chloro-phenyl)-[1,2,4]triazol-4-yl]-piperidin-1-yl}-3,3,3-trifluoro-2-hydroxy-2-methyl-propan-1-one], at human PDHK2 (12-407), the Kd fell in the range of 300 to 3000 nM. Also, the IC50 on PDHK2 is 300 to 3000 nM.
`C[C@@](O)(C(=O)N1CCC(n2nccc2-c2ccccc2)CC1)C(F)(F)F` [Compound A66, (R)-3,3,3-Trifluoro-2-hydroxy-2-methyl-1-[4-(5-phenyl-pyrazol-1-yl)-piperidin-1-yl]-propan-1-one]: on human PDHK2 (12-407), the Kd was in the range of 300 to 3000 nM. Also, on PDHK2, the IC50 fell in the range of 300 to 3000 nM.
